Test results as given in patent publication US7678778B2 (priority 2004, dated 2010).

System: B16 Melanoma
Settings: in vivo

SMILES	T-C [days]
O=P1(N(CCCl)CCCl)NCCCO1 (centres unmarked) [Cyclophosphamide, cyclophosphamide]	27
O=P1(NCCCl)OCCCN1CCCl (centres unmarked) [Ifosfamide]	18
